# From patent US20110105544A1, “CARBOXYLIC DERIVATIVES FOR USE IN THE TREATMENT OF CANCER” (priority 2007, published 2011)
# Counter-ions that a name gives are not always drawn.
# What was measured:
# [1] = system: human breast cancer cell line MCF-7; assay: alamarBlue viability assay, MCF-7; format: cell-based; settings: MCF7, 72 hours, dose required to inhibit cell growth by 50%
# Protocol: (§1) The human colon cancer cell line HCT116 and the human breast cancer cell line MCF-7 were from the American Type Culture Collection (ATCC; CCL-247 and HTB-22, respectively).
# (§2) The HCT116 cell line was maintained in DMEM GlutaMAX (Invitrogen) supplemented with 10% fetal calf serum and the MCF7 cell line was maintained in RPMI1640 GlutaMAX (Invitrogen) containing 1 mM sodium piruvate and 10% fetal calf serum.
# (§3) Cells were grown in a humidified incubator at 37° C. in 5% CO2.
# (§4) Cells were plated in 96-well plates at a density of 6000 cells/well in 100 μl medium 24 h before addition of drugs. […] To do so, a drugs-dilution plate at twice the screening concentrations was prepared. 72 hours later, alamarBlue (Biosource, Invitrogen) viability assay was performed following manufacturer's protocol. In brief, alamarBlue diluted in media was added to cells to have a 5% solution. Cells were incubated at 37° C., 3 hours and at room temperature, 30 min. Cells with no drug and, cells with no drug and lysed with triton X-100 were used as controls. Fluorescence was monitored at 530 nm excitation and 590 nm emission wavelengths. Results were quantified using Infinite F200 Microplate Reader (Tecan Group, Ltd.). EC50 were calculated as the dose of drugs required to inhibit cell growth by 50%, with Origin 7.0 computer program.
# [2] = system: human colon cancer cell line HCT116; assay: alamarBlue viability assay, HCT116; format: cell-based; settings: HCT-116, 72 hours, dose required to inhibit cell growth by 50%
# Protocol: as §1, §2, §3, §4
# human recombinant HDAC 8 = molecular target: T1, human recombinant HDAC 8 (Homo sapiens, UniProt Q9BY41); assay: HDAC inhibition assay (Fluor de Lys), HDAC8; format: biochemical; settings: inhibitor-protein incubation 0 hours, reaction 3 hours, 37° C.
# T1 construct: purchased BPS Bioscience 50008
# T1 sequence (Q9BY41 1-377): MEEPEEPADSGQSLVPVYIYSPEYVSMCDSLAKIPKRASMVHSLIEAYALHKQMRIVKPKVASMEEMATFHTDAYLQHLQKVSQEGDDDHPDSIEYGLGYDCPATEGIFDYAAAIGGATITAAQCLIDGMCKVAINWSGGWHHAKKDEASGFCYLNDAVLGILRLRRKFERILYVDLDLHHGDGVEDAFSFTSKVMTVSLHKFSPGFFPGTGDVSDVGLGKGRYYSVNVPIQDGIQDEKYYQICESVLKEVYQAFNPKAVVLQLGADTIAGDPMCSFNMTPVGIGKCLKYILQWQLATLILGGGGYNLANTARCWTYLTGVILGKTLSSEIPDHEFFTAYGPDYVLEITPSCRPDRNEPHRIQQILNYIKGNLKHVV
# Protocol: (§5) All assays were carried out in the assay buffer: 50 mM Tris/Cl, pH 8.0, 137 mM NaCl, 2.7 mM KCl, 1 mM MgCl2).
# (§6) Reactions were carried out in a 96-wells microplate (Corning 96 well Flat Bottom Non-binding surface (black) ref. 3651).
# (§7) Potential inhibitors were added after five fold serial dilutions in DMSO. Final DMSO concentration in the assay microplate was kept at 2%.
# (§8) Afterwards, human recombinant HDAC1, HDAC 2 or HDAC 8 were added up to […] respectively in assay buffer. When necessary, the mixture was incubated at room temperature prior the addition of substrate.
# (§9) Total reaction volume of 50 μl. Human recombinant HDACs could be acquired from commercial sources (HDAC1: ref. #50001, BPS Bioscience™; HDAC 2: ref. #50002, BPS Bioscience™; HDAC 8: ref. #50008, BPS Bioscience™).
# (§10) Reactions were stopped with 50 μl Developer (KI-105 Fluor de Lys™, BIOMOL®) with 2 μmol/L trichostatin A (TSA, final concentration 1 μmol/L). After 20 minutes at 37° C., fluorescence (excitation 360 nm, emission 460 nm) was measured using an Infinite F200 fluorimeter (Tecan). Background was determined in reactions using substrate in the absence of enzyme.
# (§11) IC50 values are defined as the compound concentration at which the deacetylase activity is 50% inhibited. In these assays the following grading was used (I: IC50≦10 μM; II: 10 μM<IC50≦100 μM; III: 100 μM<IC50≦1 mM) The results obtained are summarized in Table 4.
# human recombinant HDAC 2 = molecular target: T2, human recombinant HDAC 2 (Homo sapiens, UniProt Q92769); assay: HDAC inhibition assay (Fluor de Lys), HDAC2; format: biochemical; settings: inhibitor-protein incubation 2 hours, reaction 1 h 30 min, 37° C.
# T2 construct: purchased BPS Bioscience 50002
# T2 sequence (Q92769 whole entry): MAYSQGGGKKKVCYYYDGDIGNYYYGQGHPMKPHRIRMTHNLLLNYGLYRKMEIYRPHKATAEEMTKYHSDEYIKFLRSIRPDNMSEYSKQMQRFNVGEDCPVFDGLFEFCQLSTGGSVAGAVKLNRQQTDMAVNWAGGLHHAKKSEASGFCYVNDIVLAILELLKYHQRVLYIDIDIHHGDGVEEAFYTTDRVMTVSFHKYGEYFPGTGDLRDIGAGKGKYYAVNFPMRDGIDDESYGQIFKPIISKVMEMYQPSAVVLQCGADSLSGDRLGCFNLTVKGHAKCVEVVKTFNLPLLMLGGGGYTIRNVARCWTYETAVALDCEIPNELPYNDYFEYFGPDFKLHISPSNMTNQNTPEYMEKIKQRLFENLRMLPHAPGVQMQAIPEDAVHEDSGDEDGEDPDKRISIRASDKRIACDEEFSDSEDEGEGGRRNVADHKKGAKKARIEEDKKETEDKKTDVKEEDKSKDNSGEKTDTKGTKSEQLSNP
# Protocol: as §5, §6, §7, §8, §9, §10, §11
# MDA-MB-468 (breast) = assay: alamarBlue viability assay, MDA-MB-468; format: cell-based; settings: Homo sapiens, 72 hours
# Protocol: (§12) Additionally, the following cancer cell lines were used:
# as §3
# (§13) Cells were plated in 96-well plates at a density of 6000 cells/well in 100 μl medium 24 h before addition of drugs. They were then added in concentrations from 100 μM to 0.45 nM (each concentration in triplicate). To do so, a drugs-dilution plate at twice the screening concentrations was prepared. 72 hours later, alamarBlue (Biosource, Invitrogen) viability assay was performed following manufacturer's protocol. In brief, alamarBlue diluted in media was added to cells to have a 5% solution. Cells were incubated at 37° C., 3 hours and at room temperature, 30 min. Cells with no drug and, cells with no drug and lysed with triton X-100 were used as controls. Fluorescence was monitored at 530 nm excitation and 590 nm emission wavelengths. Results were quantified using Infinite F200 Microplate Reader (Tecan Group, Ltd.). EC50 were calculated as the dose of drugs required to inhibit cell growth by 50%, with Origin 7.0 computer program.
# MDA-MB-435P (breast) = assay: alamarBlue viability assay, MDA-MB-435P; format: cell-based; settings: 72 hours
# Protocol: as §12, §3, §13
# PC3 (prostate) = assay: alamarBlue viability assay, PC3; format: cell-based; settings: 72 hours
# Protocol: as §12, §3, §4
# Hep3B (hepatocarcinoma) = assay: alamarBlue viability assay, Hep3B; format: cell-based; settings: Homo sapiens, 72 hours
# Protocol: as §12, §3, §4
EC50 [1] [mM],EC50 [2] [µM],IC50 (human recombinant HDAC 8) [µM],IC50 (human recombinant HDAC 2) [µM],EC50 (MDA-MB-468 (breast)) [µM],EC50 (MDA-MB-435P (breast)) [µM],EC50 (PC3 (prostate)) [µM],EC50 (Hep3B (hepatocarcinoma)) [µM],SMILES
1.8,2400,100 to 1000,,,,,,"CNS(=O)(=O)c1ccc(CCCC(CCc2ccccc2)C(=O)O)cc1 (stereo not shown) [Example 13, 5-(4-[(Methylamino)sulfonyl]phenyl)-2-(2-phenylethyl)pentanoic acid]"
,140,10 to 100,10 to 100,,,,,"O=C(O)C(CCCc1cccc(S(=O)(=O)NCc2ccccc2)c1)CCc1ccccc1 (stereo not shown) [Example 27, 5-(3-[(Benzylamino)sulfonyl]phenyl)-2-(2-phenylethyl)pentanoic acid]"
,65,,,13,6.7,,,"CNS(=O)(=O)c1cccc(CCCC(CCc2ccccc2)C(=O)OCOC(C)=O)c1 (stereo not shown) [Example 19, (Acetyloxy)methyl 5-(3-[(methylamino)sulfonyl]phenyl)-2-(2-phenylethyl)pentanoate]"
,1200,100 to 1000,,,,,,O=C(O)C(CCCc1cccc(S(=O)(=O)Nc2ccccc2)c1)CCc1ccccc1 (stereo not shown) [Example 39]
,96.5,10 to 100,100 to 1000,,,,,"O=C(O)C(CCCc1ccc2ccccc2c1)CCc1ccccc1 (stereo not shown) [Example 22, 5-(2-Naphthyl)-2-(2-phenylethyl)pentanoic acid]"
,67,10 to 100,10 to 100,,,,,"O=C(O)C(CCCc1cccc2ccccc12)CCc1ccccc1 (stereo not shown) [Example 23, 5-(1-Naphthyl)-2-(2-phenylethyl)pentanoic acid]"
,58.2,100 to 1000,,,,,,"O=C(O)C(CCCc1ccccc1)CCc1cccc(O)c1 (stereo not shown) [Example 30, 2-[2-(3-Hydroxyphenyl)ethyl]-5-phenylpentanoic acid]"
,90,≤ 10,10 to 100,,,,,"O=C(O)C(CCCc1ccccc1)CCc1ccc(-c2cccnc2)cc1 (stereo not shown) [Example 77, 2-[2-(4-Pyridin-3′-ylphenyl)ethyl]-5-phenylpentanoic acid]"
,23,≤ 10,10 to 100,43,16,102,418,"O=C(O)C(CCCc1ccccc1)CCc1ccc(OCc2ccccc2)cc1 (stereo not shown) [Example 55, 2-[2-(4-Benzyloxyphenyl)ethyl]-5-phenylpentanoic acid]"
,166,10 to 100,100 to 1000,,,,,"COc1cccc(CCC(CCCc2ccccc2)C(=O)O)c1 (stereo not shown) [Example 29, 2-[2-(3-methoxyphenyl)ethyl]-5-phenylpentanoic acid]"
,44.8,10 to 100,10 to 100,,,,,"O=C(O)C(CCCc1ccc(S(=O)(=O)Nc2ccccc2)cc1)CCc1ccccc1 (stereo not shown) [Example 40, 5-(4-[Anilinosulfonyl]phenyl)-2-(2-phenylethyl)pentanoic acid]"
,75,≤ 10,10 to 100,,,,,"CN(C)c1ccc(C(=O)Nc2cccc(CCCC(CCc3ccccc3)C(=O)O)c2)cc1 (stereo not shown) [Example 24, 5-[3-{[4-(dimethylamino)benzoyl]amino}phenyl]-2-(2-phenylethyl)pentanoic acid hydrochloride]"
,165,≤ 10,10 to 100,,,,,"CCc1ccc(CCC(CCCc2ccccc2)C(=O)O)cc1 (stereo not shown) [Example 45, 2-[2-(4-Ethylphenyl)ethyl]-5-phenylpentanoic acid]"

# Second part, the molecule before the results:
SMILES,EC50 [1] [mM],EC50 [2] [µM],IC50 (human recombinant HDAC 8) [µM],IC50 (human recombinant HDAC 2) [µM],EC50 (MDA-MB-468 (breast)) [µM],EC50 (MDA-MB-435P (breast)) [µM],EC50 (PC3 (prostate)) [µM],EC50 (Hep3B (hepatocarcinoma)) [µM]
"COC(=O)C(CCc1ccccc1)Cc1ccccc1 (stereo not shown) [Example 8, Methyl 2-benzyl-4-phenylbutanoate]",5,,,,,,,
"CNS(=O)(=O)c1ccc(CCCC(CCc2ccccc2)C(=O)O)s1 (stereo not shown) [Example 26, 5-{5-[(Methylamino)sulfonyl]thien-2-yl}-2-(2-phenylethyl)pentanoic acid]",,1700,100 to 1000,,,,,
"CCC(CCc1ccccc1)C(=O)O (stereo not shown) [Example 5, 2-Ethyl-4-phenylbutanoic acid]",1.42,2420,,,,,,
"CCc1ccc(CCC(CCCc2cccc(NC(=O)c3ccc(N(C)C)cc3)c2)C(=O)O)cc1 (stereo not shown) [Example 49, 5-(3-{[4-(Dimethylamino)benzoyl]amino}phenyl)-2-[2-(4-ethylphenyl)ethyl]pentanoic acid]",,140,≤ 10,100 to 1000,,,,
"CCCC(CCc1ccccc1)C(=O)O (stereo not shown) [Example 7, 2-(2-Phenylethyl)pentanoic acid]",1.85,680,10 to 100,100 to 1000,,,,
"O=C(O)C(C/C=C/c1ccccc1)CCc1ccccc1 (stereo not shown) [Example 21, (4E)-5-Phenyl-2-(2-phenylethyl)pent-4-enoic acid]",,204,10 to 100,100 to 1000,,,,
"COC(=O)C(C)CCc1ccccc1 (stereo not shown) [Example 2, methyl 2-methyl-4-phenylbutanoate]",0.696,238,,,,,,
"CCCC(CCCc1ccccc1)C(=O)O (stereo not shown) [Example 35, 5-Phenyl-2-propylpentanoic acid]",,1300,10 to 100,100 to 1000,,,,
"CC(=O)Nc1ccc(CCC(CCCc2ccccc2)C(=O)O)cc1 (stereo not shown) [Example 31, 2-{2-[4-(Acetylamino)phenyl]ethyl}-5-phenylpentanoic acid]",,,10 to 100,100 to 1000,,,,
"O=C(O)C(CCCc1ccccc1)OCc1ccccc1 (stereo not shown) [Example 69, 2-(Benzyloxy)-5-phenylpentanoic acid]",,965,10 to 100,100 to 1000,,,,
"O=C(O)C(CCCc1ccccc1)CCc1ccccn1 (stereo not shown) [Example 28, 5-Phenyl-2-(2-pyridin-2-ylethyl)pentanoic acid]",,312,100 to 1000,,,,,
"CCC(CCc1ccccc1)C(=O)OC (stereo not shown) [Example 4, Methyl 2-ethyl-4-phenylbutanoate]",0.354,105,,,,,,
"Cc1ccc(NS(=O)(=O)c2cccc(C#CCC(CCc3ccccc3)C(=O)O)c2)cc1 (stereo not shown) [Example 38, 5-[3-(4-Methylanilinosulfonyl)phenyl]-2-(2-phenylethyl)pent-4-ynoic acid]",,121,10 to 100,100 to 1000,,,,
"CC(CCc1ccccc1)C(=O)O (stereo not shown) [Example 3, 2-Methyl-4-phenylbutanoic acid]",> 5,4510,100 to 1000,,,,,
"COc1ccc(CCC(CCCc2ccccc2)C(=O)O)cc1 (stereo not shown) [Example 57, 2-[2-(4-Methoxyphenyl)ethyl]-5-phenylpentanoic acid]",,242,10 to 100,100 to 1000,,,,
